The source of these data is US11149031B2, “Substituted N-(3-fluoropropyl)-pyrrolidine compounds, processes for their preparation and therapeutic uses thereof” (SANOFI, priority 2016, dated 2021).

Test [1] deals with His6-ERα298-554 Y537S mutant (ERα ligand-binding domain) (Homo sapiens (Human), UniProt P03372, Y537S). The test can be described thus: Test A: biochemical antagonist activity, LanthaScreen TR-FRET ERα coactivator assay, Y537S mutant. To be noted: read-out: Antagonism Y537S IC50. The procedure, abridged: (§1)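 His6-ERα LBD (0.5 nM) with 0.5 nM Tb-anti-His6 antibody, 250 nM PGC1a peptide and 3 nM (or 10 nM) estradiol in 100 mM potassium phosphate pH 7.4 with 5 mM DTT, incubated overnight at room temperature with compound.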
His6-ERα298-554 Y537S mutant (ERα ligand-binding domain), sequence (P03372 298-554 Y537S): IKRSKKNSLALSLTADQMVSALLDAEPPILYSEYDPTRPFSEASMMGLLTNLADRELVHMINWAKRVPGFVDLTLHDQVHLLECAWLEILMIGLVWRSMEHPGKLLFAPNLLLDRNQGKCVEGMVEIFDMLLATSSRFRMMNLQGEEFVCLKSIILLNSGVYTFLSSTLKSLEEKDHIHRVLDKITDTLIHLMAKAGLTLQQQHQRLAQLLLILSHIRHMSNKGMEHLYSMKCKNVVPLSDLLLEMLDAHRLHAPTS
Background: Time-resolved FRET reads energy transfer from a long-lived donor to a nearby acceptor.

The target of another test is ERα in MCF7 cells (Homo sapiens (Human), UniProt P03372). Kind of test: Test C: estrogen receptor degradation activity, ERα in cell western assay in MCF7 cells. Format: cell-based. The note with it: for DC50: 4 hours post compound addition, ERα in cell western, read-out: Degradation IC50; for % Degradation at 3 μM: 4 hours, relative to fulvestrant. The procedure, abridged:
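MCF7 cells in phenol-red-free medium with 5% charcoal-stripped FBS received compound (9-point 1:5, 3-0.000018 μM) for 4 h, then were fixed. ERα immunostained (Alexa 488) and normalised to DNA (Syto-64), read as integrated fluorescence on an Acumen scanner.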

Test [2] has as its system MCF7 cells expressing mutant estrogen receptor Tyr 537 Ser. Kind of test: Test B: cell proliferation/viability assay (CellTiter-Glo) on MCF7 Tyr 537 Ser mutant. Format: cell-based. The note with it: Homo sapiens, MCF7, 168 h, MCF7 cells expressing ER Tyr 537 Ser mutant, 7 days of compound exposure, read-out: proliferation MCF7 Y537S IC50. The source says: (§2) Test B: Cell Proliferation/Viability Assay on MCF7 (Breast Tumor Cells) WT and Mutants Cell Lines
(§3) Test B involves measuring the in vitro proliferation activity of the compounds of the invention by analyzing the viability of the tumor cells.
(§4) The measurements of the viability were made using a breast cancer cell viability assay as described hereunder.
(§5) MCF7 cells expressing (and dependent) on mutants estrogen receptor Tyr 537 Ser or Asp 538 Gly were generated by transfection of MCF7 parental cells (ATCC) with expression vectors coding for different mutants of estrogen receptor Tyr 537 Ser or Asp 538 Gly. The cells were first selected by antibiotic (related to vector expression) and then selected for their growth dependence on estrogen receptor based on their ability to grow in vitro in absence of estradiol (parental cell line die in absence of estradiol).
(§6) MCF7 cells (ATCC) or MCF7 cells expressing (and dependent) on mutants estrogen receptor Tyr 537 Ser or Asp 538 Gly were seeded in 384 wells microplate at concentration of >999 cells/30 μL per well in red phenol free MEM medium containing 5% charcoal dextran striped FBS. The following day, 9 points serial 1:5 dilution of each compound were added to the cells in 20 μL at final concentrations ranging from 3-0.000001 μM. After 7 days of compound exposure, 50 μL of CellTiter-Glo (promega) was added to the cells and relative luminescence arbitrary units (RLUs) were determined in luminescence plate reader (Envision device). CellTiter-Glo was added to 50 μL medium without cells to determine the background signal.
(§7) The percent of viability of each sample was determined as follows: (RLU sample−RLU background/RLU untreated−RLU background)*100=% viability.
For orientation: Cellular ATP, detected with luciferase, serves as a proxy for viable cell number.

The target in test [3] is His6-ERα298-554 D538G mutant (ERα ligand-binding domain) (Homo sapiens (Human), UniProt P03372, D538G). The test can be described thus: Test A: biochemical antagonist activity, LanthaScreen TR-FRET ERα coactivator assay, D538G mutant. To be noted: read-out: Antagonism D538G IC50. The essentials: as §1
His6-ERα298-554 D538G mutant (ERα ligand-binding domain), sequence (P03372 298-554 D538G): as the sequence (P03372 298-554 Y537S) above, with S240Y, D241G counted along it
Test [4] deals with MCF7 cells expressing mutant estrogen receptor Asp 538 Gly. Kind of test: Test B: cell proliferation/viability assay (CellTiter-Glo) on MCF7 Asp 538 Gly mutant. The format is cell-based. To be noted: Homo sapiens, MCF7, 168 h, MCF7 cells expressing ER Asp 538 Gly mutant, 7 days of compound exposure, read-out: proliferation MCF7 D538G IC50.
Excerpt: as §2, §3, §4, §5, §6, §7

The target in test [5] is His6-ERα298-554 WT (ERα ligand-binding domain) (Homo sapiens (Human), UniProt P03372). The test can be described thus: Test A: biochemical antagonist activity, LanthaScreen TR-FRET ERα coactivator assay, WT. To be noted: read-out: Antagonism WT IC50. The procedure, abridged:
as §1

For test [6], the system named is MCF7 cells (breast tumor cells) WT. Kind of test: Test B: cell proliferation/viability assay (CellTiter-Glo) on MCF7 WT. The format is cell-based. To be noted: Homo sapiens, MCF7, 168 h, 7 days of compound exposure. As to the method:
as §2, §3
The measurements of the viability were made using a breast cancer cell viability assay as described hereunder. […]
as §6, §7

[7] abbreviates: asterisk (*): protocol using 10 nM estradiol.

The structures appear in SMILES notation. Where two headings read alike, the source gives them in different places.

His6-ERα298-554 WT (ERα ligand-binding domain), sequence (P03372 298-554): as the sequence (P03372 298-554 Y537S) above, with S240Y counted along it
ERα in MCF7 cells, sequence (P03372 whole entry): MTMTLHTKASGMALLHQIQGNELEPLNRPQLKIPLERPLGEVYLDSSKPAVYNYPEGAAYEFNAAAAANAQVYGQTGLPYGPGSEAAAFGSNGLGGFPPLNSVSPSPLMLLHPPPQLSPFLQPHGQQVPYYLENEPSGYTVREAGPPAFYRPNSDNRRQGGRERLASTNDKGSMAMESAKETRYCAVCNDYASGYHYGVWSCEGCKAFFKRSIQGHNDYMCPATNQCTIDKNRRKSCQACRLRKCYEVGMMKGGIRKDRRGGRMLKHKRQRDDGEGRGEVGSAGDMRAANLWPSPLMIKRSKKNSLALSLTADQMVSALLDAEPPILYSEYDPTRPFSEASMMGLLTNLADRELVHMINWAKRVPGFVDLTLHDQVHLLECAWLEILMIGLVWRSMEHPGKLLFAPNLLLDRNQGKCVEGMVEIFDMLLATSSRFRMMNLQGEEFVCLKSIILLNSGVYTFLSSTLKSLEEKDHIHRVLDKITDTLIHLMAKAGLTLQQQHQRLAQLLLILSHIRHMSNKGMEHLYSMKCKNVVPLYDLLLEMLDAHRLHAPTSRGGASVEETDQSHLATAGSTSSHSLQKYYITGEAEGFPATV

For `Oc1ccc2c(c1)SCC(c1ccc(OC(F)F)cc1F)=C2c1ccc(O[C@H]2CCN(CCCF)C2)cc1` [Example 35, 3-[4-(difluoromethoxy)-2-fluoro-phenyl]-4-[4-[(3S)-1-(3-fluoropropyl)pyrrolidin-3-yl]oxyphenyl]-2H-thiochromen-7-ol], the IC50 in test [1] (setting [7]) amounted to 220 nM; in test [2] it was 2 nM; in test [3] (setting [7]), 421 nM; in test [4], 0.3 nM; in test [5] (setting [7]), 16 nM; in test [6], 0.2 nM. For the same compound, at ERα in MCF7 cells, the DC50 turned out to be 1 nM. Also, the “% Degradation at 3 μM” value at ERα in MCF7 cells stood at 89%.

Regarding `Oc1ccc2c(c1)CCCC(c1ccc(OC(F)F)c(F)c1)=C2c1ccc(O[C@H]2CCN(CCCF)C2)nc1` [Example 241, 6-[4-(difluoromethoxy)-3-fluoro-phenyl]-5-[6-[(3S)-1-(3-fluoropropyl)pyrrolidin-3-yl]oxy-3-pyridyl]-8,9-dihydro-7H-benzo[7]annulen-2-ol], the IC50 in test [1] (setting [7]) was 16 nM; in test [2] it was 2 nM; in test [3] (setting [7]), 27 nM; in test [4] it was 0.2 nM; in test [5] (setting [7]), 1 nM; in test [6], 0.1 nM. Besides, at ERα in MCF7 cells, the DC50 was found to be 0.2 nM. The “% Degradation at 3 μM” value on ERα in MCF7 cells is 85%.

For the compound `Oc1ccc2c(c1)SCCC(c1ccc3occc3c1)=C2c1ccc(O[C@H]2CCN(CCCF)C2)cc1` [Example 184, 4-(benzofuran-5-yl)-5-[4-[(3S)-1-(3-fluoropropyl)pyrrolidin-3-yl]oxyphenyl]-2,3-dihydro-1-benzothiepin-8-ol], the IC50 worked out at 4 nM in test [1] (protocol with 3 nM estradiol); 4 nM in test [2]; 6 nM in test [3] (protocol with 3 nM estradiol); 0.7 nM in test [4]; 1 nM in test [5] (protocol with 3 nM estradiol); 0.3 nM in test [6]. On ERα in MCF7 cells, the DC50 worked out at 0.7 nM. In addition, at ERα in MCF7 cells, the “% Degradation at 3 μM” value was found to be 87%.

`Oc1cc2c(cc1F)C(c1ccc(O[C@H]3CCN(CCCF)C3)cc1)=C(c1ccc3occc3c1)CCO2` [Example 156, 4-(benzofuran-5-yl)-7-fluoro-5-[4-[(3S)-1-(3-fluoropropyl)pyrrolidin-3-yl]oxyphenyl]-2,3-dihydro-1-benzoxepin-8-ol]: the IC50 in test [1] (setting [7]) was found to be 254 nM; in test [2] it was 14 nM; in test [3] (setting [7]), 409 nM; in test [4], 2 nM; in test [5] (setting [7]) it was 19 nM; in test [6], 0.6 nM. In addition, at ERα in MCF7 cells, the DC50 was 0.4 nM. In addition, the “% Degradation at 3 μM” value on ERα in MCF7 cells was 85%.

In the case of `Oc1ccc2c(c1)CCC(c1ccc(Cl)cc1Cl)=C2c1ccc(O[C@H]2CCN(CCCF)C2)cc1` [Example 14, 6-(2,4-dichlorophenyl)-5-[4-[(3S)-1-(3-fluoropropyl)pyrrolidin-3-yl]oxyphenyl]-7,8-dihydronaphthalen-2-ol], the results for the IC50 in test [2], in test [4] and in test [6] were 6 nM, 1 nM and 0.5 nM, respectively.

As for `Oc1ccc2c(c1)CCC(c1ccc(OC(F)(F)F)cc1)=C2c1ccc(O[C@H]2CCN(CCCF)C2)cc1` [Example 12, 5-[4-[(3S)-1-(3-fluoropropyl)pyrrolidin-3-yl]oxyphenyl]-6-[4-(trifluoromethoxy)phenyl]-7,8-dihydronaphthalen-2-ol], the IC50 is 9 nM in test [2], 5 nM in test [4] and 1 nM in test [6].

As to `Oc1ccc2c(c1)SCCC(c1ccc(Cl)cc1Cl)=C2c1ccc(O[C@H]2CCN(CCCF)C2)nc1` [Example 205, 4-(2,4-dichlorophenyl)-5-[6-[(3S)-1-(3-fluoropropyl)pyrrolidin-3-yl]oxy-3-pyridyl]-2,3-dihydro-1-benzothiepin-8-ol], the DC50 on ERα in MCF7 cells came to 0.4 nM. The “% Degradation at 3 μM” value on ERα in MCF7 cells amounted to 84%. The IC50 in test [2] worked out at 3 nM; in test [4] it was 0.2 nM; in test [6], 0.2 nM.

With `Oc1ccc2c(c1)CCCC(c1ccc(Cl)c(F)c1)=C2c1ncc(O[C@H]2CCN(CCCF)C2)cn1` [Example 254, 6-(4-chloro-3-fluoro-phenyl)-5-[5-[(3S)-1-(3-fluoropropyl)pyrrolidin-3-yl]oxypyrimidin-2-yl]-8,9-dihydro-7H-benzo[7]annulen-2-ol], the IC50 in test [2] worked out at 129 nM; in test [4], 17 nM; in test [6], 16 nM.

As for `Oc1ccc(C2=C(c3ccc(O[C@H]4CCN(CCCF)C4)cc3)c3ccc(O)cc3CC2)cc1` [Example 15, 5-[4-[(3S)-1-(3-fluoropropyl)pyrrolidin-3-yl]oxyphenyl]-6-(4-hydroxyphenyl)-7,8-dihydronaphthalen-2-ol], the IC50 in test [2] worked out at 30 nM; in test [4], 25 nM; in test [6], 0.2 nM.

On to `CC(C)Oc1ccc(C2=C(c3ccc(O[C@H]4CCN(CCCF)C4)cc3)c3ccc(O)cc3OCC2)c(C(F)(F)F)c1.Cl` [Example 150, 5-[4-[(3S)-1-(3-fluoropropyl)pyrrolidin-3-yl]oxyphenyl]-4-[4-isopropoxy-2-(trifluoromethyl)phenyl]-2,3-dihydro-1-benzoxepin-8-ol hydrochloride], for which the DC50 at ERα in MCF7 cells turned out to be 4 nM. Besides, the “% Degradation at 3 μM” value at ERα in MCF7 cells is given as 82%. Besides, the IC50 in test [2] was determined as 14 nM; in test [4], 2 nM; in test [6], 0.4 nM.

As to `Cc1nc(C)c(C2=C(c3ccc(O[C@H]4CCN(CCCF)C4)cc3)c3ccc(O)cc3SC2)s1` [Example 68, 3-(2,4-dimethylthiazol-5-yl)-4-[4-[(3S)-1-(3-fluoropropyl)pyrrolidin-3-yl]oxyphenyl]-2H-thiochromen-7-ol], the IC50 turned out to be 125 nM in test [2], 7 nM in test [4] and 14 nM in test [6].

`Cc1ccc(C2=C(c3ccc(O[C@H]4CCN(CCCF)C4)cc3)c3ccc(O)cc3SC2)c(Cl)c1` [Example 58, 3-(2-chloro-4-methyl-phenyl)-4-[4-[(3S)-1-(3-fluoropropyl)pyrrolidin-3-yl]oxyphenyl]-2H-thiochromen-7-ol]: the figures for the IC50 in test [2], in test [4] and in test [6] were 5 nM, 0.8 nM and 2 nM, respectively.

With `O=C(O)c1ccc2c(c1)SCCC(c1ccc(Cl)cc1Cl)=C2c1ccc(O[C@H]2CCN(CCCF)C2)cc1` [Example 203, 4-(2,4-dichlorophenyl)-5-[4-[(3S)-1-(3-fluoropropyl)pyrrolidin-3-yl]oxyphenyl]-2,3-dihydro-1-benzothiepine-8-carboxylic acid], the DC50 at ERα in MCF7 cells stood at 0.6 nM. Besides, on ERα in MCF7 cells, the “% Degradation at 3 μM” value turned out to be 93%. Moreover, the IC50 in test [2] stood at 13 nM; in test [4], 1 nM; in test [6] it was 0.8 nM.

As to `Oc1ccc2c(c1)SCCC(c1ccc(Cl)cc1Cl)=C2c1ccc(O[C@H]2CCN(CCCF)C2)cc1` [Example 166, 4-(2,4-dichlorophenyl)-5-[4-[(3S)-1-(3-fluoropropyl)pyrrolidin-3-yl]oxyphenyl]-2,3-dihydro-1-benzothiepin-8-ol], on ERα in MCF7 cells, the DC50 is 2 nM. Further, the “% Degradation at 3 μM” value on ERα in MCF7 cells is listed as 90%. The IC50 in test [2] was determined as 8 nM; in test [4], 1 nM; in test [6], 0.2 nM.

For the compound `Oc1ccc2c(c1)CCC(c1ccc(F)cc1Cl)=C2c1ccc(O[C@H]2CCN(CCCF)C2)cc1` [Example 13, 6-(2-chloro-4-fluoro-phenyl)-5-[4-[(3S)-1-(3-fluoropropyl)pyrrolidin-3-yl]oxyphenyl]-7,8-dihydronaphthalen-2-ol], the IC50 in test [2] is 8 nM; in test [4], 3 nM; in test [6], 0.4 nM.
